The record followed here is patent US9629830B2, “EphA4 inhibitors as neuroprotective agents” (The Hong Kong University of Science and Technology, priority 2013, dated 2017).

Assay [1] concerns the target EphA4 (Homo sapiens, UniProt P54764). Nature of the assay: Inhibition of EphA4 signaling (assay not specified).
For another assay, the target named is T1, EphA4 (HT-22 cells) (Mus musculus, UniProt Q03137).
T1 construct: HT-22 cells, a cell line that expresses EphA4; endogenous in cells; host or cells: HT-22 cells
T1 sequence (Q03137 20-986): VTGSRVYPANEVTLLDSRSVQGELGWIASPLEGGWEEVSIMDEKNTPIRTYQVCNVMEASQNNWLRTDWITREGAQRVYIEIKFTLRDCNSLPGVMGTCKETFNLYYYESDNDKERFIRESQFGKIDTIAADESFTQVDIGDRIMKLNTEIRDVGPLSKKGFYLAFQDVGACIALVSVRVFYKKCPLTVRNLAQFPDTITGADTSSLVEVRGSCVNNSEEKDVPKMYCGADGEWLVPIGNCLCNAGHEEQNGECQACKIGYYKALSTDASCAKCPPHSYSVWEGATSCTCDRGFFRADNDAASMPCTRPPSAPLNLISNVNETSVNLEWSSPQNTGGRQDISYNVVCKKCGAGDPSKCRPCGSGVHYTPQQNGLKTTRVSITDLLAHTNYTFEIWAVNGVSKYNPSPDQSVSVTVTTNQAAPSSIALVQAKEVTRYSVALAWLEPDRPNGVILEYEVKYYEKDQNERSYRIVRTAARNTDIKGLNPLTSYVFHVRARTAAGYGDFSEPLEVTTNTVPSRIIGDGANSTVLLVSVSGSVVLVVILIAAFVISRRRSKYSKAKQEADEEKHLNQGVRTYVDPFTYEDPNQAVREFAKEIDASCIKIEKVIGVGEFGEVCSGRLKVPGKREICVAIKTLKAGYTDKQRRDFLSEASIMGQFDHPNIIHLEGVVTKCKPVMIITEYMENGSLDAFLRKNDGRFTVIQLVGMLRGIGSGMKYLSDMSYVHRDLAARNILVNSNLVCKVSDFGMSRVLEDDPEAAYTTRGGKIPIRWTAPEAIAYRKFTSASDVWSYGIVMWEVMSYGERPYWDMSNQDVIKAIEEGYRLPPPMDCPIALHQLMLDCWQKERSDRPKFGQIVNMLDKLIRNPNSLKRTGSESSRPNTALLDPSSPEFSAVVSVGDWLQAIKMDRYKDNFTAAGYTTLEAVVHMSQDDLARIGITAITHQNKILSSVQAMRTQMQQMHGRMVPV
Description: Cell-based binding of biotinylated ephrin-A1 to the surface of HT-22 cells. The settings on record: 10 min pre-incubation; Rhy 300 μM, KYL 100 μM (FIG. 10); biotinylated ephrin-A1 0.5 μg/mL. As to the method:
HT-22 cells were seeded on poly-D-lysine coverslips. […] The cells were then fixed with 4% paraformaldehyde and then immunostained with Alexa Fluor 488-conjugated Streptavidin antibody (Molecular Probes) for surfacing labeling of biotinylated ephrin-A1.

The subject of assay [2] is Aβ-triggered reduction of dendritic spines in hippocampal neurons. Nature of the assay: Dendritic spine analysis in Aβ-treated hippocampal neurons. The assay is classed as cell-based, rat. As for the experimental part: Cultured rat hippocampal neurons were transfected with GFP plasmid at 14-16 DIV and exposed to Aβ at 24-28 DIV for 24 h after treatment with 30 μM KYL peptide. The neurons were fixed with 4% paraformaldehyde and examined using confocal microscopy using a 63× objective lens as previously described^24.

Assay [3] relates to Aβ-induced impairment of hippocampal LTP. Nature of the assay: HFS-induced LTP (fEPSP slope) in acute hippocampal slices treated with Aβ. Format: cell-based, mouse. As for the experimental part: Oligomeric Aβ (Aβ) was prepared as described previously^59,60. Briefly, 0.5 mg monomeric Aβ1-42 was dissolved in 22.2 μL dry DMSO and then diluted in ice-cold phenol-red free F-12 medium to yield a final Aβ concentration of 100 μM. The Aβ solution was incubated at 4° C. for 24 h and then centrifuged at 14,000×g for 10 min. The supernatant was frozen in liquid nitrogen and stored at −20° C. for up to 1 month. Unless specified, cultured neurons or hippocampal slices were typically treated with Aβ at 500 nM.
(§1) For LTP recordings, mouse brains were immediately dissected after sacrifice and soaked in ice-cold 95% O2/5% CO2 (aCSF)^58. Brain slices (300 μm thick) were prepared using a vibrating tissue slicer (HM650V; Thermo), and soaked in oxygenated buffer for 2 h at 32° C. The hippocampal regions were resected and placed at the center of a MED-P210A probe (Panasonic International Inc) with 64 embedded recording electrodes. The slices were then perfused with Aβ at 500 nM in oxygenated aCSF for 2 h before LTP induction^70. For treatment with EphA4 inhibitors, the slices were pretreated with peptides or chemicals for 1 h before application of Aβ. fEPSPs were recorded using a MED64 multichannel recording system, and the data were collected from the dendritic layer of area CA1 at a sampling rate of 10 kHz. For each slice, the baseline stimulus intensity was set at the level that elicited ˜50% of the maximum fEPSP response determined according to the input-output curve. LTP was induced by 3 trains of HFS (100 Hz, 1 s, delivered 30 s apart). The magnitude of LTP was quantified as a percentage change in the fEPSP slope (10%-90%) taken during the 60-min interval after LTP induction.

The subject of a further assay is APP/PS1 mutant mice. Nature of the assay: HFS-induced hippocampal LTP in WT and APP/PS1 mice after in vivo treatment. Set-up: species or system mouse. Particulars: KYL infused by osmotic pump (17 μg, ~3 weeks).
Text: APP/PS1 double-transgenic mice were obtained from Jackson Laboratory (B6C3-Tg[APPswe, PSEN1dE9]85Dbo/J)^66. These mice were generated by incorporating a human/murine APP construct bearing the Swedish double mutation and the exon-9-deleted PSEN1 mutation (APPswe+PSEN1/dE9). APP transgenic mice (Tg2576) expressing a double mutant of human AβPP (Lys^670→Asn^670, Met^671→Leu^671) were also used^31. Both sexes were used for experiments, and all mice used in this study were produced by the Animal Care Facility of The Hong Kong University of Science and Technology. The genotype was confirmed by polymerase chain reaction analysis of tail biopsies. Four to five mice of the same sex were housed in a cage with food and water ad libitum with a 12-hour light/dark cycle.
To investigate the effect of blocking EphA4 signaling by KYL peptide in AD mice, 4-5-month-old AD transgenic mice were implanted with Alzet mini-osmotic pumps, model 1004, pumping its contents at 0.11 μL/h for 28 days. Pumps were loaded with either 0.23 μg/μL KYL peptide (17 μg) or vehicle solvent in artificial cerebrospinal fluid (CSF). The mini-osmotic pumps were adjusted intracerebroventricularly in the right hemisphere. EphA4 in the CA1 regions of APP/PS1 mice was knocked down by injecting vesicular stomatitis virus glycoprotein G-pseudotyped lentiviral particles with pFUGW-shEphA4 bilaterally into the corresponding regions as described previously^58.
as §1, with “The hippocampal regions were resected and placed at the center of a MED-P210A probe (Panasonic International Inc) with 64 embedded recording electrodes. The slices were then perfused with Aβ at 500 nM in oxygenated aCSF for 2 h before LTP induction^70.” left out, “LTP was induced by 3 trains of HFS (100 Hz, 1 s, delivered 30 s apart).” left out
WT and APP/PS1 mutant (Tg) mice were orally administered with corylin ([…]) by daily gavage for 3-4 weeks prior to LTP measurements. LTP induced by 3 trains of HFS (100 Hz for 1 s delivered 30 s apart) in the CA1 region of the SC pathway of the hippocampus was measured. The magnitude of LTP was quantified as the percentage change in the fEPSP slope (10-90%) taken during the 60-min interval after LTP induction.

Assay [4] addresses T2, EphA4 (Rattus norvegicus, UniProt D3ZZK3).
T2 construct: endogenous in cells; host or cells: primary rat cortical neurons (A5), primary rat hippocampal neurons (A7)
Nature of the assay: Aβ-stimulated EphA4 tyrosine phosphorylation in acute hippocampal slices. Format: cell-based. Particulars: KYL 0.5 h pretreatment then Aβ 2 h. As to the method: Hippocampal synaptosomes were prepared as described previously^67. Acute hippocampal slices from P15-P17 rats were lysed in radioimmunoprecipitation assay (RIPA) buffer (1% Triton X-100, 1% sodium deoxycholate, 0.1% SDS, 150 mM NaCl, 10 mM sodium phosphate, 2 mM EDTA, and 0.2% sodium vanadate) with various protease inhibitors. For the Cdk5 kinase assay, cultured cortical neurons [16 days in vitro (DIV)] were lysed in lysis buffer A (20 mM Tris [pH 7.6], 150 mM NaCl, 1 mM EDTA, 1 mM EGTA, 1 mM NaF, and 0.5% Nonidet P-40) with various protease inhibitors. Western blot analysis was performed as described previously^24.
For the immunoprecipitation assay, lysates were immunoprecipitated with the corresponding antibody for 2 h at 4° C. followed by incubation with protein G Sepharose for 1 h at 4° C.^24. The samples were washed with RIPA buffer or buffer A and resuspended in SDS sample buffer. EphA4 tyrosine phosphorylation was detected by western blot analysis using 4G10 antibody.

T2 sequence (D3ZZK3 20-986): as the sequence (Q03137 20-986) above, with S270T, K559Q, S874P counted along it
EphA4 (Homo sapiens, UniProt P54764), sequence (P54764 20-986, species assumed): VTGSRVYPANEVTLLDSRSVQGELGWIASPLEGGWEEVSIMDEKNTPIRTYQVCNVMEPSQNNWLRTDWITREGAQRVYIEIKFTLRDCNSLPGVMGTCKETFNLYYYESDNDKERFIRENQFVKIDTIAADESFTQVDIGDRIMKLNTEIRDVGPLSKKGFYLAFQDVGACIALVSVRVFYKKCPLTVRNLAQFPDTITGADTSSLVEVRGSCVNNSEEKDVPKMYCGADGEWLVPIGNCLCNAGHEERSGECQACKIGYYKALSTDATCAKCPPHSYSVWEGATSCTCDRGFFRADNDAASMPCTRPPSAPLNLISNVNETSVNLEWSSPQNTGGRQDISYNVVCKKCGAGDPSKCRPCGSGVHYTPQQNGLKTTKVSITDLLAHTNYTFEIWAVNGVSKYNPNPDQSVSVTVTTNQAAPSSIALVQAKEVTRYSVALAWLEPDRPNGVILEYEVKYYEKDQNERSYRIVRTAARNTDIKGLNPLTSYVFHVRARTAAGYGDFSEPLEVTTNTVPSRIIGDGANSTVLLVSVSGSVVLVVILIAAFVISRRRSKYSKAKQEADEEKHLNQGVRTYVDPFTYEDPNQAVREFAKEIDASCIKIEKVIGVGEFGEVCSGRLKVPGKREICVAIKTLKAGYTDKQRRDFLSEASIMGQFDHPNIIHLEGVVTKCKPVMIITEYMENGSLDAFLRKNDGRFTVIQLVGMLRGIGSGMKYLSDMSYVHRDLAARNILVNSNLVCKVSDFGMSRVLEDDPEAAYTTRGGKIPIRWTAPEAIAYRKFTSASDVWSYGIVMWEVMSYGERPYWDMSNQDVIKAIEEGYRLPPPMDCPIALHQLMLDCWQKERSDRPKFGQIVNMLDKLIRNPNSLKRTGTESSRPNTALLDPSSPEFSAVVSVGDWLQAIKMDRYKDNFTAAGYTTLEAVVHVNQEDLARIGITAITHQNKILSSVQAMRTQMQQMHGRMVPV

Regarding `CC[C@H]1CN2CC[C@@]3(C(=O)Nc4ccccc43)[C@@H]2C[C@@H]1/C(=C\OC)C(=O)OC` [IsoRhy, isorhynchophylline], the “inhibition of EphA4 signaling” value against EphA4 [1] is “inactive in inhibiting EphA4 signaling”.

On to “KYLPYWPVLSSL [KYL peptide, reference compound]”, for which the “binding of ephrin-A1 to HT-22 cells” value in the assay with EphA4 (HT-22 cells) is recorded as “reduced the binding of ephrin-A1 to HT-22 cells”. Besides, the dendritic spine density in assay [2] (KYL peptide alone (30 μM), control 0.66±0.1/μm) is listed as 0.55±0.13 /μm; in assay [2] (co-treatment of Aβ (24 h) and KYL peptide (30 μM), Aβ alone 0.46±0.21/μm) it was 0.61±0.18 /μm. The “mean fEPSP slope, last 10 min after LTP induction” value in assay [3] (KYL peptide 100 μM + Aβ, Aβ alone 132±6.06%) was found to be 174.9±9.0%; in assay [3] (KYL peptide 100 μM alone, control 169±6.72%), 164.6±5.7%; with APP/PS1 mutant mice (APP/PS1 (Tg) mice, Tg Con 154.0±8.2%) it was 181.9±8.6%; with APP/PS1 mutant mice (WT mice, WT Con 191.8±9.5%), 190.1±6.9%. Besides, the “Aβ-stimulated tyrosine phosphorylation of EphA4” value in the assay with EphA4 [4] was “abolished the Aβ-stimulated tyrosine phosphorylation of EphA4”.
